Experimental data taken from article PMC7570694, “Design, Synthesis, and Structure–Activity Relationships of Thiazole Analogs as Anticholinesterase Agents for Alzheimer’s Disease” (Molecules, 2020).

Assays:
[1] = target: T1, AChE (Electrophorus electricus, UniProt O42275); experiment: AChE inhibition, modified Ellman spectrophotometric method; type: biochemical; conditions: for inhibition at 1000 µM: read-out: AChE % Inhibition 10^−3 M; for inhibition at 100 µM: read-out: AChE % Inhibition 10^−4 M; for inhibition at 10 µM: read-out: AChE % Inhibition 10^-5 M; for inhibition at 1 µM: read-out: AChE % Inhibition 10^-6 M; for inhibition at 0.1 µM: read-out: AChE % Inhibition 10^-7 M; for inhibition at 0.01 µM: read-out: AChE % Inhibition 10^-8 M; for inhibition at 0.001 µM: read-out: AChE % Inhibition 10^-9 M
Description: (§1) The reagents and materials used in the enzyme inhibition assay were supplied commercially from Sigma-Aldrich (St. Louis, MO, USA) and Fluka (Steinheim, Germany). The cholinesterase enzyme inhibition procedure was applied as previously reported in our research papers.
(§2) Moreover, the IC50 values were calculated with the help of GraphPad ‘PRISM’ software (version 5.0) by using a dose–response curve achieved by plotting the percentage inhibition versus the log concentration.
(§3) All of the attained 3-((2-(4-(4-(trifluoromethyl)phenyl)thiazol-2-yl)hydrazineylidene)methyl)-substituedphenyl derivatives were investigated with regard to their ability to inhibit the activity of cholinesterase enzymes using the in vitro modified Ellman’s spectrophotometric method previously described.
(§4) Therefore, the IC50 values of the selected compounds and reference agents were calculated.

[2] = target: BChE (Equus caballus, UniProt P81908); experiment: biochemical; conditions: mean ± SD; for inhibition at 1000 µM: read-out: BChE % Inhibition 10^−3 M, compound at 10^−3 M; for inhibition at 100 µM: read-out: BChE % Inhibition 10^−4 M, compound at 10^−4 M
Description: as §1, §2, §3, §4

[3] = target: T1, AChE; experiment: Kinetic studies of AChE inhibition (Lineweaver–Burk plots, substrate ATC); type: biochemical; conditions: Lineweaver–Burk plot; IC50/2, IC50, 2xIC50; ATC 600–18.75 µM
Description: For this purpose, this compound was prepared at different concentrations (IC50, 2xIC50 and IC50/2). […] The Ki values of the compound were easily calculated from the second plot with a common intercept on the x-axis (corresponding to −Ki).
Enzyme kinetics studies were conducted to determine the mechanism of inhibition of AChE using a procedure similar to that of the inhibition assay for cholinesterase enzymes. […] Linear Lineweaver–Burk graphs were used to estimate the type of inhibition of this compound.
According to the Lineweaver–Burk plots, the type of inhibition consists of two general classes: reversible or irreversible.

T1 sequence (O42275 24-633): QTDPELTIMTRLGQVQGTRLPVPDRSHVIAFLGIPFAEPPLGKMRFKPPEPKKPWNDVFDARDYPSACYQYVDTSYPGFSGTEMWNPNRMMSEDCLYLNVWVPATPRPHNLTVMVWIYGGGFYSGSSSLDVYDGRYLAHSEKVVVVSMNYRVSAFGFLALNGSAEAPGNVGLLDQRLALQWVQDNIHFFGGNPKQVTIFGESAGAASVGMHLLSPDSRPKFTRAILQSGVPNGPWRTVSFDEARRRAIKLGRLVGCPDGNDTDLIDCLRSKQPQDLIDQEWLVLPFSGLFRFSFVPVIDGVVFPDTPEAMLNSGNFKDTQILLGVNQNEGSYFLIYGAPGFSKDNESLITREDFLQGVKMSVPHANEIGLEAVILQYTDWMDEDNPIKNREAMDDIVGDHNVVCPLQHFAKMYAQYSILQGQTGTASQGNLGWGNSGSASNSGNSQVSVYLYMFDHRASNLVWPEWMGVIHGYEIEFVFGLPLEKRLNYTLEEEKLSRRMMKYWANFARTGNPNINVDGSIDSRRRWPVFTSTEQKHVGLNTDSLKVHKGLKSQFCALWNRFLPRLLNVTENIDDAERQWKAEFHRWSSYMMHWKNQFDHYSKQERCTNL
Chain of BChE (P81908 whole entry): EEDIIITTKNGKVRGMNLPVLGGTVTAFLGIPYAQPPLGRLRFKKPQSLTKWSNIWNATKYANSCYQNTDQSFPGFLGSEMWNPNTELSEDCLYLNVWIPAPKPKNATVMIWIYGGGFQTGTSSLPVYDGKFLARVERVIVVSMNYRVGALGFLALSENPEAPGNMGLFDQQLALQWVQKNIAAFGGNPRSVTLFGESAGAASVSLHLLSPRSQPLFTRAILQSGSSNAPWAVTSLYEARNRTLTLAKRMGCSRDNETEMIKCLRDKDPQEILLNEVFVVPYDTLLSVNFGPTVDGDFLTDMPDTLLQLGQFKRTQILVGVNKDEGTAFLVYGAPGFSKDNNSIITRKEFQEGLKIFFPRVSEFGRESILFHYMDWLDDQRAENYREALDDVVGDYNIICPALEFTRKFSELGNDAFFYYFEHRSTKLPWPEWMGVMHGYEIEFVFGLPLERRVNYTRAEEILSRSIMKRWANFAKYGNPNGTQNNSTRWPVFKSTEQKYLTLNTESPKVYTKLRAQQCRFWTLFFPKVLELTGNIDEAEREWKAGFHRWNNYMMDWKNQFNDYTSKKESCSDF

## Oc1cccc(C=NNc2nc(-c3ccc(C(F)(F)F)cc3)cs2)c1O [2c, 3-[(2-{4-[4-(Trifluoromethyl)phenyl]thiazol-2-yl}hydrazineylidene)methyl]benzene-1,2-diol]
[1]
  inhibition at 1000 µM: 78.2 ± 1.02%
  inhibition at 100 µM: 45.1 ± 0.971%
[2]
  inhibition at 1000 µM: 43.6 ± 0.955%
  inhibition at 100 µM: 32.5 ± 0.721%

## COc1cccc(C=NNc2nc(-c3ccc(C(F)(F)F)cc3)cs2)c1 [2e, 2-[2-(3-Methoxybenzylidene)hydrazineyl]-4-[4-(trifluoromethyl)phenyl]thiazole]
[1]
  inhibition at 10 µM: 81.8%
  inhibition at 1 µM: 74.8%
  inhibition at 0.1 µM: 62.4%
  inhibition at 0.01 µM: 44.3%
  inhibition at 0.001 µM: 21.6%
  inhibition at 1000 µM: 90.6 ± 1.81%
  inhibition at 100 µM: 85.4 ± 1.73%
[2]
  inhibition at 1000 µM: > 50%
  inhibition at 100 µM: 41.6 ± 0.907%

## COc1ccc(O)c(C=NNc2nc(-c3ccc(C(F)(F)F)cc3)cs2)c1 [2j, 4-Methoxy-2-[(2-{4-[4-(trifluoromethyl)phenyl]thiazol-2-yl}hydrazineylidene)methyl]phenol]
[1]
  AChE inhibition profile in words: moderate
  inhibition at 10 µM: 76.8%
  inhibition at 1 µM: 62.1%
  inhibition at 0.1 µM: 57.4%
  inhibition at 0.01 µM: 40.7%
  inhibition at 0.001 µM: 25.6%
  inhibition at 1000 µM: 91.3 ± 2.11%
  inhibition at 100 µM: 84.9 ± 1.37%
[2]
  inhibition at 1000 µM: > 50%
  inhibition at 100 µM: 39.6 ± 0.865%

## FC(F)(F)c1ccc(-c2csc(NN=Cc3ccc4c(c3)OCO4)n2)cc1 [2h, 2-[2-(Benzo[1,3]dioxol-5-ylmethylene)hydrazineyl]-4-[4-(trifluoromethyl)phenyl]thiazole]
[1]
  inhibition at 1000 µM: 77.6 ± 1.76%
  inhibition at 100 µM: 41.9 ± 0.976%
[2]
  inhibition at 1000 µM: 45.8 ± 0.926%
  inhibition at 100 µM: 34.3 ± 0.738%

## Oc1ccc(C=NNc2nc(-c3ccc(C(F)(F)F)cc3)cs2)cc1 [2b, 4-[(2-{4-[4-(Trifluoromethyl)phenyl]thiazol-2-yl}hydrazineylidene)methyl]phenol]
[1]
  inhibition at 10 µM: 74.6%
  inhibition at 1 µM: 63.8%
  inhibition at 0.1 µM: 58%
  inhibition at 0.01 µM: 43.9%
  inhibition at 0.001 µM: 21.2%
  inhibition at 1000 µM: 90.3 ± 1.45%
  inhibition at 100 µM: 82.2 ± 1.48%
[2]
  inhibition at 1000 µM: > 50%
  inhibition at 100 µM: 40.5 ± 0.71%

## COc1cc(C=NNc2nc(-c3ccc(C(F)(F)F)cc3)cs2)cc(OC)c1OC [2k, 4-[4-(Trifluoromethyl)phenyl]-2-[2-(3,4,5-trimethoxybenzylidene)hydrazineyl]thiazole]
[1]
  inhibition at 1000 µM: 65.3 ± 1.04%
  inhibition at 100 µM: 40.8 ± 0.94%
[2]
  inhibition at 1000 µM: 40.2 ± 0.902%
  inhibition at 100 µM: 25.6 ± 0.633%

## COc1ccc(C=NNc2nc(-c3ccc(C(F)(F)F)cc3)cs2)cc1OC [2g, 2-[2-(3,4-Dimethoxybenzylidene)hydrazineyl]-4-[4-(trifluoromethyl)phenyl]thiazole]
[1]
  inhibition at 10 µM: 81.5%
  inhibition at 1 µM: 76.9%
  inhibition at 0.1 µM: 69.2%
  inhibition at 0.01 µM: 43.1%
  inhibition at 0.001 µM: 24.9%
  inhibition at 1000 µM: 93.5 ± 1.63%
  inhibition at 100 µM: 88.3 ± 1.6%
[2]
  inhibition at 1000 µM: > 50%
  inhibition at 100 µM: 40.4 ± 0.845%

## COc1ccccc1C=NNc1nc(-c2ccc(C(F)(F)F)cc2)cs1 [2d, 2-[2-(2-Methoxybenzylidene)hydrazineyl]-4-[4-(trifluoromethyl)phenyl]thiazole]
[1]
  AChE inhibition profile in words: moderate
  inhibition at 10 µM: 78.1%
  inhibition at 1 µM: 67.3%
  inhibition at 0.1 µM: 55.9%
  inhibition at 0.01 µM: 38.2%
  inhibition at 0.001 µM: 29.8%
  inhibition at 1000 µM: 89.5 ± 2.04%
  inhibition at 100 µM: 82.4 ± 1.7%
[2]
  inhibition at 1000 µM: > 50%
  inhibition at 100 µM: 43.8 ± 0.895%

## Oc1cccc(C=NNc2nc(-c3ccc(C(F)(F)F)cc3)cs2)c1 [2a, 3-[(2-{4-[4-(Trifluoromethyl)phenyl]thiazol-2-yl}hydrazineylidene)methyl]phenol]
[1]
  inhibition at 10 µM: 81.2%
  inhibition at 1 µM: 74.2%
  inhibition at 0.1 µM: 61%
  inhibition at 0.01 µM: 41.3%
  inhibition at 0.001 µM: 20.4%
  inhibition at 1000 µM: 93.4 ± 1.65%
  inhibition at 100 µM: 90.5 ± 1.32%
[2]
  inhibition at 1000 µM: > 50%
  inhibition at 100 µM: 42.5 ± 0.978%

## COc1cc(C=NNc2nc(-c3ccc(C(F)(F)F)cc3)cs2)cc(OC)c1O [2l, 2,6-Dimethoxy-4-[(2-{4-[4-(trifluoromethyl)phenyl]thiazol-2-yl}hydrazineylidene)methyl]phenol]
[1]
  inhibition at 1000 µM: 62.8 ± 1.28%
  inhibition at 100 µM: 35.4 ± 0.895%
[2]
  inhibition at 1000 µM: 38.7 ± 0.815%
  inhibition at 100 µM: 23.2 ± 0.759%

## COc1ccc(C=NNc2nc(-c3ccc(C(F)(F)F)cc3)cs2)cc1O [2i, 2-Methoxy-5-[(2-{4-[4-(trifluoromethyl)phenyl]thiazol-2-yl}hydrazineylidene)methyl]phenol]
[1]
  inhibition at 10 µM: 86.6%
  inhibition at 1 µM: 81%
  inhibition at 0.1 µM: 71.8%
  inhibition at 0.01 µM: 42.7%
  inhibition at 0.001 µM: 22.2%
  inhibition at 1000 µM: 95.2 ± 1.5%
  inhibition at 100 µM: 92.1 ± 1.8%
[3]
  type of inhibition of AChE: reversible and mixed-type
[2]
  inhibition at 1000 µM: > 50%
  inhibition at 100 µM: 41.5 ± 0.87%

## COc1cccc(C=NNc2nc(-c3ccc(C(F)(F)F)cc3)cs2)c1OC [2f, 2-[2-(2,3-Dimethoxybenzylidene)hydrazineyl]-4-[4-(trifluoromethyl)phenyl]thiazole]
[1]
  inhibition at 1000 µM: 71.7 ± 1.4%
  inhibition at 100 µM: 40.5 ± 0.89%
[2]
  inhibition at 1000 µM: 40.9 ± 0.895%
  inhibition at 100 µM: 31.5 ± 0.82%
